Earlier results as cited in publication PMC10202811 (Nature Medicine, 2023).

Conditions: adults with NSCLC; cited from earlier work

## C[C@H]1Oc2cc(cnc2N)-c2c(nn(C)c2C#N)CN(C)C(=O)c2ccc(F)cc21 [Lorlatinib, (10R)-7-amino-12-fluoro-2,10,16-trimethyl-15-oxo-10,15,16,17-tetrahydro-2H-8,4-(metheno)pyrazolo[4,3-h][2,5,11]-benzoxadiazacyclotetradecine-3-carbonitrile]
  adult RP2D: 100 mg per day
